Test results published in PMC10999543, “Identification of kinase modulators as host-directed therapeutics against intracellular methicillin-resistant Staphylococcus aureus” (Frontiers in Cellular and Infection Microbiology, 2024).
Where two headings read alike, the source gives them in different places.

How the values were obtained:
intracellular MRSA = format: cell-based, Staphylococcus aureus; conditions: for %GFP+ rep 1 / z-scoreMRSA+ rep 1: replicate 1; for %GFP+ rep 2 / z-scoreMRSA+ rep 2: replicate 2; for %GFP+ rep 3 / z-scoreMRSA+ rep 3: replicate 3; for z-scoreMRSA+ mean: mean of 3 replicates
Protocol: (§1) The cells were resuspended in cell culture medium without antibiotics, seeded with 10,000 cells/well into Costar flat-bottom 96-well plates (Corning, Amsterdam, the Netherlands), and were incubated overnight at 37°C/5% CO2. The next day, the bacteria were centrifuged at ≥1800 g for 15 min and resuspended in cold PBS + 5 mM ethylenediaminetetraacetic acid (EDTA). The number of CFUs present in the bacterial suspension was estimated from the optical density at 600 nm (OD600) by assuming 8x10^8 CFUs to be present in a bacterial suspension with OD600 = 1, based on prior titrations. The bacterial suspension was diluted in cell culture medium without antibiotics and added to the cells. Accuracy of the multiplicity of infection (MOI) was validated by plating serial dilutions of the MRSA inoculums on Difco TS agar plates (BD Biosciences). The calculated mean MOI throughout all experiments was 6.8 ± 4.6 (mean ± SD). Infected cells were centrifuged for 3 min at 150 g and incubated for 1 hour at 37°C/5% CO2. Next, the cells were incubated with fresh cell culture medium supplemented with 30 µg/ml gentamicin sulphate (Lonza BioWhittaker, Basel, Switzerland) for 15 min at 37°C/5% CO2 to kill residual extracellular bacteria. Infected cells were incubated overnight at 37°C/5% CO2 in cell culture medium in the presence of kinase inhibitors and 5 µg/ml gentamicin sulphate-containing medium to prevent the growth of extracellular bacteria. The solvent of the compounds, DMSO, was used at equal % v/v as a negative control. For the screen, each compound was tested in triplicate, on separate cell culture plates, resulting in triplicate values for each kinase inhibitor.
(§2) HeLa cells were harvested by trypsinization and fixed with 1% paraformaldehyde. Samples were measured on a FACSLyric with HTS extension (BD Biosciences). Flow cytometry data were analysed using FlowJo version 10 (TreeStar, Ashland, OR, USA). HeLa cells positive for GFP were gated to calculate the percentage of MRSA-infected cells. The cell count was used as surrogate readout of cell viability.
To identify potential “hit” compounds, the flow cytometry data were used to calculate standard z-scores using z = (x-μ)/σ – zneg, where x is total event count or the percent of GFP-positive cells from a single well, μ is the mean from wells of the plate, σ is the standard deviation of the plate and zneg is the mean z-score of the negative control of the plate (i.e., DMSO) ([Korbee et al., 2018]). To minimize the possibility that the presence of extreme values on a plate affected the z-scores, raw values that deviated two-fold from the negative controls were excluded when calculating plate means and standard deviations as used in the aforementioned formula. Compounds were considered a “hit” when z-scoreMRSA+ ≤ -2 and z-scoreHeLa ≥ -3 for cell count. In cases where compounds were screened twice, the average values were used to select hit compounds.

HeLa cells = assay: Compound screen by flow cytometry: HeLa cell count as surrogate readout of cell viability (z-scoreHeLa); format: cell-based, human
Protocol: as §1, §2
To minimize the possibility that the presence of extreme values on a plate affected the z-scores, raw values that deviated two-fold from the negative controls were excluded when calculating plate means and standard deviations as used in the aforementioned formula. Compounds were considered a “hit” when z-scoreMRSA+ ≤ -2 and z-scoreHeLa ≥ -3 for cell count. In cases where compounds were screened twice, the average values were used to select hit compounds.

[1] = PKIS compounds raw data, MRSA-infected HeLa cells
[2] = Yes/No: effect without cell death
[3] = compound screen, MRSA-infected HeLa cells
[4] = PKIS compounds raw data, replicate 1, HeLa cell count
[5] = PKIS compounds raw data, replicate 2, HeLa cell count
[6] = PKIS compounds raw data, replicate 3, HeLa cell count
[7] = compound screen, HeLa cell count, mean of 3 replicates
[8] = compound screen, HeLa cell count, replicate 1
[9] = compound screen, HeLa cell count, replicate 2
[10] = compound screen, HeLa cell count, replicate 3
[11] = PKIS compound screen raw data, MRSA-infected HeLa cells
[12] = PKIS compound screen, MRSA-infected HeLa cells
[13] = PKIS compound screen, Yes/No call (effect without cell death)
[14] = PKIS compound screen, Yes/No call on z-scoreMRSA+
[15] = PKIS compound screen raw data, HeLa cell count, replicate 1
[16] = PKIS compound screen raw data, HeLa cell count, replicate 2
[17] = PKIS compound screen raw data, HeLa cell count, replicate 3
[18] = PKIS compound screen, HeLa cell count, mean of 3 replicates
[19] = PKIS compound screen, HeLa cell count, replicate 1
[20] = PKIS compound screen, HeLa cell count, replicate 2
[21] = PKIS compound screen, HeLa cell count, replicate 3
[22] = PKIS compound screen, Yes/No call on z-scoreHeLa
[23] = PKIS compound screen, Yes/No call
[24] = PKIS compound screen, mean of 3 replicates
[25] = PKIS compound screen, replicate 1
[26] = PKIS compound screen, replicate 2
[27] = PKIS compound screen, replicate 3

| Compound | %GFP+ rep 1 (intracellular MRSA; [1]) [%] | %GFP+ rep 2 (intracellular MRSA; [1]) [%] | %GFP+ rep 3 (intracellular MRSA; [1]) [%] | effect (intracellular MRSA; Yes/No call from z-scoreMRSA+) | hit (intracellular MRSA; [2]) | z-scoreMRSA+ mean (intracellular MRSA; [3]) | z-scoreMRSA+ rep 1 (intracellular MRSA; [3]) | z-scoreMRSA+ rep 2 (intracellular MRSA; [3]) | z-scoreMRSA+ rep 3 (intracellular MRSA; [3]) | cell count rep 1 (HeLa cells; [4]) | cell count rep 2 (HeLa cells; [5]) | cell count rep 3 (HeLa cells; [6]) | cell death (HeLa cells; Yes/No call from z-scoreHeLa) | z-scoreHeLa mean (HeLa cells; [7]) | z-scoreHeLa rep 1 (HeLa cells; [8]) | z-scoreHeLa rep 2 (HeLa cells; [9]) | %GFP+ rep 1 (intracellular MRSA; [11]) [%] | %GFP+ rep 2 (intracellular MRSA; [11]) [%] | %GFP+ rep 3 (intracellular MRSA; [11]) [%] | hit (intracellular MRSA; [13]) | other results |
| --- | --- | --- | --- | --- | --- | --- | --- | --- | --- | --- | --- | --- | --- | --- | --- | --- | --- | --- | --- | --- | --- |
| CN(C)C(=O)O[C@@H]1CN[C@@H](C#Cc2cc3ncnc(Nc4ccc(OCc5cccc(F)c5)c(Cl)c4)c3s2)C1 [GSK238063A] | 8.6 | 9.6 | 9.8 | No | No | -1.52 | -1.46 | -1.30 | -1.81 | 3194 | 3723 | 4546 | No | -1.00 | -1.43 | -0.41 |  |  |  |  | z-scoreHeLa rep 3 (HeLa cells; [10]): -1.16 |
| CS(=O)(=O)CCNCc1cc(-c2cc3c(Nc4ccc(OCc5cccc(F)c5)c(Cl)c4)ncnc3s2)cs1 [GSK300014A] |  |  |  |  |  |  |  |  |  |  |  |  |  |  |  |  | 19.5 | 21.9 | 21.6 | No | z-scoreMRSA+ mean (intracellular MRSA; [12]): 0.70; z-scoreMRSA+ rep 1 (intracellular MRSA; [12]): 0.52; z-scoreMRSA+ rep 2 (intracellular MRSA; [12]): 1.02; z-scoreMRSA+ rep 3 (intracellular MRSA; [12]): 0.55; effect (intracellular MRSA; [14]): No; cell count rep 1 (HeLa cells; [15]): 28943; cell count rep 2 (HeLa cells; [16]): 38150; cell count rep 3 (HeLa cells; [17]): 46044; z-scoreHeLa mean (HeLa cells; [18]): 0.95; z-scoreHeLa rep 1 (HeLa cells; [19]): 1.34; z-scoreHeLa rep 2 (HeLa cells; [20]): 0.63; z-scoreHeLa rep 3 (HeLa cells; [21]): 0.88; cell death (HeLa cells; [22]): No |
| COc1cc2c(Nc3ccc(NC(=O)c4ccccc4)cc3)ncnc2cc1OCCCN1CCOCC1 [GSK301329A] |  |  |  | No | No | 0.13 | -0.0173 | 0.48 | -0.09 |  |  |  |  |  |  |  | 25.2 | 24.6 | 21.9 |  | cell death (HeLa cells): No; cell count rep 1 (HeLa cells; human): 4010; cell count rep 2 (HeLa cells; human): 4052; cell count rep 3 (HeLa cells; human): 5236; z-scoreHeLa mean (HeLa cells; human): -0.15; z-scoreHeLa rep 1 (HeLa cells; human): -0.25; z-scoreHeLa rep 2 (HeLa cells; human): -0.19; z-scoreHeLa rep 3 (HeLa cells; human): -0.00157 |
| O=S(=O)(c1cccc(F)c1)c1ccc(Nc2ncnc3cc(Br)sc23)cc1Cl [GSK306886A] | 13.2 | 13.8 | 13.0 | No | No | -0.25 | 0.00934 | 0.10 | -0.85 | 2697 | 1761 | 5093 | No | -1.56 | -1.88 | -1.89 |  |  |  |  | z-scoreHeLa rep 3 (HeLa cells; [10]): -0.89 |
| CS(=O)(=O)Cc1ccc(Nc2nccc(-c3c(-c4cccc(NC(=O)C5CCCCC5)c4)nn4ncccc34)n2)cc1 [GSK350559A] |  |  |  | No | No | -1.91 | -2.32 | -1.63 | -1.77 |  |  |  | No | 0.0244 | 0.41 | -0.15 | 15.3 | 15.9 | 16.3 |  | cell count rep 1 (HeLa cells; [15]): 4919; cell count rep 2 (HeLa cells; [16]): 4109; cell count rep 3 (HeLa cells; [17]): 4941; z-scoreHeLa rep 3 (HeLa cells; [10]): -0.19 |
| Cc1n[nH]c2ccc(-c3cc(OC[C@@H](N)Cc4ccccc4)cnc3-c3ccoc3)cc12 [GSK507358A] | 17.4 | 19.2 | 18.9 |  |  |  |  |  |  | 7770 | 8336 | 7240 |  |  |  |  |  |  |  | No | effect (intracellular MRSA; [23]): No; z-scoreMRSA+ mean (intracellular MRSA; PKIS compound screen): -1.58; z-scoreMRSA+ rep 1 (intracellular MRSA; PKIS compound screen): -1.88; z-scoreMRSA+ rep 2 (intracellular MRSA; PKIS compound screen): -1.31; z-scoreMRSA+ rep 3 (intracellular MRSA; PKIS compound screen): -1.55; cell death (HeLa cells; [23]): No; z-scoreHeLa mean (HeLa cells; [24]): 1.21; z-scoreHeLa rep 1 (HeLa cells; [25]): 1.04; z-scoreHeLa rep 2 (HeLa cells; [26]): 1.55; z-scoreHeLa rep 3 (HeLa cells; [27]): 1.04 |
| Cc1ccc(S(=O)(=O)Nc2ccc(Nc3nccc(Nc4cccc5[nH]ncc45)n3)cc2)cc1 [GSK581271A] | 23.9 | 26.1 | 25.7 |  |  |  |  |  |  | 6603 | 6528 | 6401 |  |  |  |  |  |  |  | No | effect (intracellular MRSA; [23]): No; z-scoreMRSA+ mean (intracellular MRSA; PKIS compound screen): -0.30; z-scoreMRSA+ rep 1 (intracellular MRSA; PKIS compound screen): -0.62; z-scoreMRSA+ rep 2 (intracellular MRSA; PKIS compound screen): 0.0118; z-scoreMRSA+ rep 3 (intracellular MRSA; PKIS compound screen): -0.29; cell death (HeLa cells; [23]): No; z-scoreHeLa mean (HeLa cells; [24]): 0.40; z-scoreHeLa rep 1 (HeLa cells; [25]): 0.33; z-scoreHeLa rep 2 (HeLa cells; [26]): 0.35; z-scoreHeLa rep 3 (HeLa cells; [27]): 0.51 |
| CS(=O)(=O)Nc1ccc(-c2cc(-c3ccccc3)cc(C(N)=O)c2N)cc1 [GSK586581A] |  |  |  |  |  |  |  |  |  |  |  |  |  |  |  |  | 17.7 | 16.5 | 20.3 | No | z-scoreMRSA+ mean (intracellular MRSA; [12]): -0.17; z-scoreMRSA+ rep 1 (intracellular MRSA; [12]): -0.05; z-scoreMRSA+ rep 2 (intracellular MRSA; [12]): -0.61; z-scoreMRSA+ rep 3 (intracellular MRSA; [12]): 0.16; effect (intracellular MRSA; [14]): No; cell count rep 1 (HeLa cells; [15]): 20516; cell count rep 2 (HeLa cells; [16]): 41456; cell count rep 3 (HeLa cells; [17]): 41123; z-scoreHeLa mean (HeLa cells; [18]): 0.47; z-scoreHeLa rep 1 (HeLa cells; [19]): 0.06; z-scoreHeLa rep 2 (HeLa cells; [20]): 1.24; z-scoreHeLa rep 3 (HeLa cells; [21]): 0.09; cell death (HeLa cells; [22]): No |
| CNC(=O)c1cc(-c2ccc(F)cc2)cc(-c2ccc(S(=O)(=O)N3CCCC3)cc2)c1N [GSK635416A] | 12.0 | 12.0 | 12.5 |  |  |  |  |  |  | 4473 | 4269 | 6877 |  |  |  |  |  |  |  | No | effect (intracellular MRSA; [23]): No; z-scoreMRSA+ mean (intracellular MRSA; PKIS compound screen): -0.63; z-scoreMRSA+ rep 1 (intracellular MRSA; PKIS compound screen): -0.38; z-scoreMRSA+ rep 2 (intracellular MRSA; PKIS compound screen): -0.50; z-scoreMRSA+ rep 3 (intracellular MRSA; PKIS compound screen): -1.00; cell death (HeLa cells; [23]): No; z-scoreHeLa mean (HeLa cells; [24]): -0.10; z-scoreHeLa rep 1 (HeLa cells; [25]): -0.27; z-scoreHeLa rep 2 (HeLa cells; [26]): 0.000722; z-scoreHeLa rep 3 (HeLa cells; [27]): -0.04 |
